Data as given in patent US20220304997A1, “REBAMIPIDE FOR USE IN PROPHYLAXIS AND TREATMENT OF CANCER” (SQUARE POWER LTD., priority 2019, published 2022).

Tested on: Male CD-1 mice
Assay: DSS model combined with PhIP treatment (increased intestinal permeability, colitis and colon tumors)
Type: in vivo
Description: To study the effect of rebamipide on increased intestinal permeability, colonic inflammation and cancer development, a DSS model combined with PhIP treatment was employed. Male CD-1 mice, divided into three groups, designated A to C, were used in the study. […] Subsequently, all animals were given inflammatory insult using 2% dextran sodium sulfate (DSS) in drinking water for 7 days, followed by 2-4 weeks of recovery period, during which mice were given untreated water. This cycle was repeated up to four times to induce increased intestinal permeability leading to severe colitis with loss of body weight and bloody diarrhea. Subsequently, majority of animals developed multiple colon tumors. Treatment with DSS (dextran sulfate sodium) induces increased intestinal permeability in mice by binding to medium-chain-length fatty acids present in the colon leading to development of inflammation and colitis. Besides that, the DSS administration leads to a long-term development of dysplasia and even colon cancer in some of the mice treated. PhIP treatment accelerates this process and further increases the incidence of colonic tumors. Another advantage of including PhIP in the protocol is that it allows reduction of the DSS dose in mice, and decreases the mortality from DSS-associated acute colitis. The carcinogenic process of the DSS/PhIP system has a pathological progression from normal intestinal crypts to the formation of foci harboring aberrant crypts with crypt fission and finally to the emergence of microadenomas. These steps recapitulate the sequence of colorectal cancer formation in humans from increased intestinal permeability and inflammation through dysplasia to carcinoma. Rebamipide treatment started four weeks prior to carcinogen administration and continued throughout the study. Groups A and B received rebamipide 50 mg/kg/day and 350 mg/kg/day, respectively. Rebamipide was applied within the standard daily feed or by gavage if needed. The treatment lasted for 20 weeks. […] [table] The observed parameters were as follows: • Number and size of tumors • Histological evaluation of the tumors • Weight loss • Colitis severity assessment • Gut permeability • Cytokines and related markers (IL-6, IL-10, IL-1b, TNFα, iNOS, IL-23p19, MCP 1, MIP 2, CXCL1) • Cell-cell adhesion proteins (Claudin 1, β catenin) • Expression of target genes

[1] = PhIP/DSS-treated mice, in comparison to untreated animals
[2] = groups A and B, rebamipide 50 mg/kg/day and 350 mg/kg/day, 20 weeks, vs untreated control group C, preliminary results

O=C(NC(Cc1cc(=O)[nH]c2ccccc12)C(=O)O)c1ccc(Cl)cc1 (stereo not drawn) [rebamipide, 2-[(4-chlorobenzoyl)amino]-3-(2-oxo-1H-quinolin-4-yl)propanoic acid]
intestinal inflammation [1]: suppresses intestinal inflammation
onset of the symptoms and markers corresponding to colon cancer [1]: preventing or at least delaying the onset
permeability of the gastrointestinal mucosa [1]: decrease in permeability
recovery from the DSS treatment (groups A and B, rebamipide 50 mg/kg/day and 350 mg/kg/day in feed or by gavage, 20 weeks, vs untreated control group C, preliminary results): recovered faster
incidence of tumors at the end of the study [2]: lower incidence
size of tumors at the end of the study [2]: lower incidence and size of tumors
